Measured values published in US6461997B1, “Triazole sulfones having herbicidal activity” (Monsanto Technology LLC, priority 1999, dated 2002).

The compounds below were run on CIRAR (canada thistle (seedling)) (assay: Pre-plant incorporated (PPI) herbicidal activity, warm season). Settings: GR80 = lowest tested rate with 80% or greater inhibition, approx. 14 days after treating, 30/21° C.
Type: in vivo, Cirsium arvense
Protocol: (§1) In another set of tests, the pre-plant incorporated (PPI) activity of compounds of this invention was evaluated on the same species as for the pre-emergence tests described above. In the PPI tests the following procedure, designed to simulate PPI application, was used.
(§2) A pre-prepared topsoil mixture (described above) was placed in a pot and compacted to a depth of 1.0 to 1.25 cm from the top of the pot. Seeds of each of several monocotyledonous and dicotyledonous annual plant species were placed on top of the soil. A sufficient quantity of soil to cover the seeds and level fill the pot was weighed into an open container. A known amount of the test compound was dissolved or suspended in an organic solvent and applied by spraying to this cover soil. The cover soil was thoroughly mixed to distribute the test compound throughout the cover soil, and was then applied as a cover layer over the seeds. Untreated soil was used as a cover layer for control pots. After treatment the plants were placed in a greenhouse where they received 0.64 cm of overhead irrigation. All subsequent watering consisted of a light overhead mist and/or subirrigation as needed for germination and growth. Tables 9 and 10 below relate to warm season plant species which were placed after pre-emergence treatment in a greenhouse with a 30/21° C. day/night temperature regime. Tables 11 and 12 below relates to cool season plant species placed after pre-emergence treatment in a greenhouse or growth chamber with an 18/13° C. day/night temperature regime. Only the compounds of Examples 1, 6, 8, 11, 13 and 15-20 were included in PPI tests.
(§3) Approximately 14 days after planting and treating, the plants were observed and herbicidal efficacy recorded as percent inhibition by comparison with untreated plants.

Row | SMILES | PPI activity (GR80) CIRAR
1 | C=C(Br)CC(F)(F)S(=O)(=O)c1ncn(C(=O)N(CC)CC)n1 [Example 19] | 300 g/ha
2 | CCN(CC)C(=O)n1cnc(S(=O)(=O)C(F)(F)SCC(=O)OC)n1 [Example 11] | 100 g/ha

The compounds below were run on CONAR (field bindweed) (assay: Pre-emergence herbicidal activity, warm season). Settings: GR80 = lowest tested rate (300, 100, 30, 10 g/ha) with 80% or greater inhibition; approx. 14 days after treating; 30/21° C.
Type: in vivo, Convolvulus arvensis
Outline: (§4)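 Seeds sown in sterilised fertilised topsoil received surface-applied compound in 50:50 acetone/water, typically at 300, 100, 30 and 10 g/ha, then greenhouse-grown at 30/21° C (warm-season species) or 18/13° C (cool-season species). Percent inhibition versus untreated plants was scored at about 14 days, giving GR80; an asterisk marks activity short of 80% at the top rate.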

Row | SMILES | Pre-emergence activity (GR80) CONAR
3 | C=C(Br)CC(F)(F)S(=O)(=O)c1ncn(C(=O)N(CC)CC)n1 [Example 19] | * (activity observed, at least at highest rate, but <80% inhibition)

The compounds below were run on LOLMG (annual ryegrass) (assay: Pre-emergence herbicidal activity, cool season). Settings: GR80 = lowest tested rate (300, 100, 30, 10 g/ha) with 80% or greater inhibition; approx. 14 days after treating; 18/13° C.
Type: in vivo, Lolium multiflorum
Outline: as §4

Row | SMILES | Pre-emergence activity (GR80) LOLMG
4 | C=C(Br)CC(F)(F)S(=O)(=O)c1ncn(C(=O)N(CC)CC)n1 [Example 19] | 300 g/ha

These compounds were tested on KCHSC (kochia) (assay: Pre-plant incorporated (PPI) herbicidal activity, cool season). Settings: Bassia scoparia; weed, PPI application, 10 g/ha; read-out: Percent inhibition KCHSC.
Type: in vivo, Kochia scoparia
Protocol: as §1, §2, §3

Row | SMILES | inhibition at 10 g/ha
5 | C=C(Br)CC(F)(F)S(=O)(=O)c1ncn(C(=O)N(CC)CC)n1 [Example 19] | 0%

Same assay, conditions: Bassia scoparia; weed, PPI application, 30 g/ha; read-out: Percent inhibition KCHSC

Row | SMILES | inhibition at 30 g/ha
6 | C=C(Br)CC(F)(F)S(=O)(=O)c1ncn(C(=O)N(CC)CC)n1 [Example 19] | 20%

Same assay, conditions: Bassia scoparia; weed, PPI application, 100 g/ha; read-out: Percent inhibition KCHSC

Row | SMILES | inhibition at 100 g/ha
7 | C=C(Br)CC(F)(F)S(=O)(=O)c1ncn(C(=O)N(CC)CC)n1 [Example 19] | 80%

Same assay, conditions: Bassia scoparia; weed, PPI application, 300 g/ha; read-out: Percent inhibition KCHSC

Row | SMILES | inhibition at 300 g/ha
8 | C=C(Br)CC(F)(F)S(=O)(=O)c1ncn(C(=O)N(CC)CC)n1 [Example 19] | 80%

Same assay, conditions: Bassia scoparia; weed, PPI application, 900 g/ha; read-out: Percent inhibition KCHSC

Row | SMILES | inhibition at 900 g/ha
9 | C=C(Br)CC(F)(F)S(=O)(=O)c1ncn(C(=O)N(CC)CC)n1 [Example 19] | 100%

These compounds were tested on SASKR (russian thistle) in the same assay as above. Settings: Salsola kali; weed, PPI application, 10 g/ha; read-out: Percent inhibition SASKR.
Type: in vivo, Salsola kali
Protocol: as §1, §2, §3

Row | SMILES | inhibition at 10 g/ha
10 | C=C(Br)CC(F)(F)S(=O)(=O)c1ncn(C(=O)N(CC)CC)n1 [Example 19] | 0%

Same assay, conditions: Salsola kali; weed, PPI application, 30 g/ha; read-out: Percent inhibition SASKR

Row | SMILES | inhibition at 30 g/ha
11 | C=C(Br)CC(F)(F)S(=O)(=O)c1ncn(C(=O)N(CC)CC)n1 [Example 19] | 0%

Same assay, conditions: Salsola kali; weed, PPI application, 100 g/ha; read-out: Percent inhibition SASKR

Row | SMILES | inhibition at 100 g/ha
12 | C=C(Br)CC(F)(F)S(=O)(=O)c1ncn(C(=O)N(CC)CC)n1 [Example 19] | 0%

Same assay, conditions: Salsola kali; weed, PPI application, 300 g/ha; read-out: Percent inhibition SASKR

Row | SMILES | inhibition at 300 g/ha
13 | C=C(Br)CC(F)(F)S(=O)(=O)c1ncn(C(=O)N(CC)CC)n1 [Example 19] | 60%

Same assay, conditions: Salsola kali; weed, PPI application, 900 g/ha; read-out: Percent inhibition SASKR

Row | SMILES | inhibition at 900 g/ha
14 | C=C(Br)CC(F)(F)S(=O)(=O)c1ncn(C(=O)N(CC)CC)n1 [Example 19] | 95%

Same assay, conditions: pre-plant incorporated; lowest tested rate with 80% or greater inhibition; about 14 days

Row | SMILES | PPI activity GR80, SASKR
15 | C=C(Br)CC(F)(F)S(=O)(=O)c1ncn(C(=O)N(CC)CC)n1 [Example 19] | 30 g/ha
16 | CCN(CC)C(=O)n1cnc(S(=O)(=O)C(F)(F)SCC(=O)OC)n1 [Example 11] | 100 g/ha

Same assay, conditions: weed, PPI application, 10 g/ha

Row | SMILES | Percent inhibition SASKR
17 | CCN(CC)C(=O)n1cnc(S(=O)(=O)C(F)(F)SCC(=O)OC)n1 [Example 11] | 0%

Same assay, conditions: weed, PPI application, 30 g/ha

Row | SMILES | Percent inhibition SASKR
18 | CCN(CC)C(=O)n1cnc(S(=O)(=O)C(F)(F)SCC(=O)OC)n1 [Example 11] | 20%

Same assay, conditions: weed, PPI application, 300 g/ha

Row | SMILES | Percent inhibition SASKR
19 | CCN(CC)C(=O)n1cnc(S(=O)(=O)C(F)(F)SCC(=O)OC)n1 [Example 11] | 30%

Same assay, conditions: weed, PPI application, 900 g/ha

Row | SMILES | Percent inhibition SASKR
20 | CCN(CC)C(=O)n1cnc(S(=O)(=O)C(F)(F)SCC(=O)OC)n1 [Example 11] | 65%

What follows are compounds tested on CONAR (field bindweed) (assay: Pre-plant incorporated (PPI) herbicidal activity, warm season). Settings: GR80 = lowest tested rate with 80% or greater inhibition, approx. 14 days after treating, 30/21° C.
Type: in vivo, Convolvulus arvensis
Protocol: as §1, §2, §3

Row | SMILES | PPI activity (GR80) CONAR
21 | C=C(Br)CC(F)(F)S(=O)(=O)c1ncn(C(=O)N(CC)CC)n1 [Example 19] | 300 g/ha
22 | CCN(CC)C(=O)n1cnc(S(=O)(=O)C(F)(F)SCC(=O)OC)n1 [Example 11] | 100 g/ha

Each compound was assayed on POROL (common purslane) in the same assay as above. Settings: GR80 = lowest tested rate with 80% or greater inhibition, approx. 14 days after treating, 30/21° C.
Type: in vivo, Portulaca oleracea
Protocol: as §1, §2, §3

Row | SMILES | PPI activity (GR80) POROL
23 | C=C(Br)CC(F)(F)S(=O)(=O)c1ncn(C(=O)N(CC)CC)n1 [Example 19] | 100 g/ha
24 | CCN(CC)C(=O)n1cnc(S(=O)(=O)C(F)(F)SCC(=O)OC)n1 [Example 11] | 300 g/ha

What follows are compounds tested on IPOSS (annual morningglory) in the same assay as above. Settings: PPI application, 10 g/ha.
Type: in vivo, Ipomoea spp.
Protocol: as §1, §2, §3

Row | SMILES | Percent inhibition IPOSS
25 | CCN(CC)C(=O)n1cnc(S(=O)(=O)C(F)(F)SCC(=O)OC)n1 [Example 11] | 0%

Same assay, conditions: PPI application, 30 g/ha

Row | SMILES | Percent inhibition IPOSS
26 | CCN(CC)C(=O)n1cnc(S(=O)(=O)C(F)(F)SCC(=O)OC)n1 [Example 11] | 0%

Same assay, conditions: PPI application, 100 g/ha

Row | SMILES | Percent inhibition IPOSS
27 | CCN(CC)C(=O)n1cnc(S(=O)(=O)C(F)(F)SCC(=O)OC)n1 [Example 11] | 0%

Same assay, conditions: PPI application, 300 g/ha

Row | SMILES | Percent inhibition IPOSS
28 | CCN(CC)C(=O)n1cnc(S(=O)(=O)C(F)(F)SCC(=O)OC)n1 [Example 11] | 0%

Same assay, conditions: PPI application, 900 g/ha

Row | SMILES | Percent inhibition IPOSS
29 | CCN(CC)C(=O)n1cnc(S(=O)(=O)C(F)(F)SCC(=O)OC)n1 [Example 11] | 0%

The compounds below were run on BROTE (downy brome) (assay: Pre-emergence herbicidal activity, cool season). Settings: GR80 = lowest tested rate (300, 100, 30, 10 g/ha) with 80% or greater inhibition; approx. 14 days after treating; 18/13° C.
Type: in vivo, Bromus tectorum
Outline: as §4

Row | SMILES | Pre-emergence activity (GR80) BROTE
30 | C=C(Br)CC(F)(F)S(=O)(=O)c1ncn(C(=O)N(CC)CC)n1 [Example 19] | * (activity observed, at least at highest rate, but <80% inhibition)

These compounds were tested on DATST (jimsonweed) (assay: Pre-emergence herbicidal activity, warm season). Settings: GR80 = lowest tested rate (300, 100, 30, 10 g/ha) with 80% or greater inhibition; approx. 14 days after treating; 30/21° C.
Type: in vivo, Datura stramonium
Outline: as §4

Row | SMILES | Pre-emergence activity (GR80) DATST
31 | C=C(Br)CC(F)(F)S(=O)(=O)c1ncn(C(=O)N(CC)CC)n1 [Example 19] | * (activity observed, at least at highest rate, but <80% inhibition)

Each compound was assayed on AGRRE (quackgrass (seedling)) (assay: Pre-emergence herbicidal activity, cool season). Settings: GR80 = lowest tested rate (300, 100, 30, 10 g/ha) with 80% or greater inhibition; approx. 14 days after treating; 18/13° C.
Type: in vivo, Elymus repens
Outline: as §4

Row | SMILES | Pre-emergence activity (GR80) AGRRE
32 | C=C(Br)CC(F)(F)S(=O)(=O)c1ncn(C(=O)N(CC)CC)n1 [Example 19] | * (activity observed, at least at highest rate, but <80% inhibition)

The compounds below were run on AVEFA (wild oat) (assay: Pre-emergence herbicidal activity, cool season). Settings: GR80 = lowest tested rate (300, 100, 30, 10 g/ha) with 80% or greater inhibition; approx. 14 days after treating; 18/13° C.
Type: in vivo, Avena fatua
Outline: as §4

Row | SMILES | Pre-emergence activity (GR80) AVEFA
33 | C=C(Br)CC(F)(F)S(=O)(=O)c1ncn(C(=O)N(CC)CC)n1 [Example 19] | * (activity observed, at least at highest rate, but <80% inhibition)
